Like-named read-outs stand apart in the source and are kept apart here.
Columns and labels:
SFRP-1 [1] = target: T1, SFRP-1 (Homo sapiens, UniProt Q8N474); experiment: Cell-based assay for in vitro measurement of SFRP-1/SARP2 antagonist activity (U2OS cells co-transfected with 16x TCF-tk-Luciferase reporter, Wnt and hSFRP-1); details: for fold induction at 10 µM / fold induction at 15 µM: U2OS; for fold induction at 10 µM: read-out: Fold Induction with SFRP-1, U2OS cells, single dose 10 μM, luciferase reporter, fold induction over SFRP-1 control;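 on all read-outs here: U2OS cells co-transfected with a TCF-tk luciferase reporter, a Wnt vector, hSFRP-1 or empty vector and CMV-βgal, luciferase luminescence read in cell lysates alongside βgal activity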
T1 sequence (Q8N474 32-314): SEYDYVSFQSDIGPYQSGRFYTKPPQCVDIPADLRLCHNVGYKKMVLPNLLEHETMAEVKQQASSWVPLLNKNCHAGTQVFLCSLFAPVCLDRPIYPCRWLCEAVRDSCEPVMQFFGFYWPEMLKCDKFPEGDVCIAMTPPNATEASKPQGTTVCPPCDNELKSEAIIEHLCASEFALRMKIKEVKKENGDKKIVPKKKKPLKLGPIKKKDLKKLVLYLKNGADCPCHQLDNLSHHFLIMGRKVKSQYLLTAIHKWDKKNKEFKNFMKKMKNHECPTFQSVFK

SFRP-1 [2] = target: T1, SFRP-1; experiment: Fluorescence polarization binding assay (competitive displacement of a probe compound from SFRP-1); details: fluorescence anisotropy, 45 nM SFRP-1, 20 nM probe;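 further: test compound competes with a fluorescent probe held by SFRP-1, seen as a drop in probe anisotropy after incubation in darkness, with anisotropy as function of rising compound dose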
[3] = read-out: Fold Induction with SFRP-1, Conc 15 μM, single dose, luciferase reporter, fold induction over SFRP-1 control, cells with SFRP-1
[4] = read-out: Fold Induction without SFRP-1, Conc 15 μM, single dose, luciferase reporter, cells without SFRP-1 (specificity control)
[5] = read-out: Fold Induction with SFRP-1, Conc 15 μM, with SFRP-1, fold induction over SFRP-1 control, single dose
[6] = read-out: Fold Induction without SFRP-1, Conc 15 μM, without SFRP-1, single dose

SMILES: COc1ccc(S(=O)(=O)c2ccc(C(F)(F)F)c(S(=O)(=O)NCCC#N)c2)cc1 [Example 820, N-(2-cyanoethyl)-5-[(4-methoxyphenyl)sulfonyl]-2-(trifluoromethyl)benzenesulfonamide]
- EC50 (SFRP-1 [1]): 0.797 µM
- fold induction at 10 µM (SFRP-1 [1]): 4.1
- IC50 (SFRP-1 [2]): 0.25 µM

SMILES: CN(CCCNS(=O)(=O)c1cc(S(=O)(=O)c2ccccc2)ccc1C(F)(F)F)C(=O)NC1CCNCC1 [Example 971, N-(3-{methyl[(piperidin-4-ylamino)carbonyl]amino}propyl)-5-(phenylsulfonyl)-2-(trifluoromethyl)benzenesulfonamide]
- EC50 (SFRP-1 [1]): 0.774 µM
- fold induction at 10 µM (SFRP-1 [1]): 2.7
- IC50 (SFRP-1 [2]): 0.6 µM

SMILES: O=C(c1c(F)cc(F)cc1F)N1CCC(NS(=O)(=O)c2cc(S(=O)(=O)c3ccccc3)ccc2C(F)(F)F)CC1 [Example 717, 5-(phenylsulfonyl)-N-[1-(2,4,6-trifluorobenzoyl)piperidin-4-yl]-2-(trifluoromethyl)benzenesulfonamide]
- EC50 (SFRP-1 [1]): 1.29 µM
- fold induction at 10 µM (SFRP-1 [1]): 5.3
- IC50 (SFRP-1 [2]): 0.17 µM

SMILES: O=S(=O)(NC1Cc2ccc(O)cc2C1)c1cc(S(=O)(=O)c2ccccc2)ccc1C(F)(F)F (stereo not drawn) [Example 1004, N-(5-hydroxy-2,3-dihydro-1H-inden-2-yl)-5-(phenylsulfonyl)-2-(trifluoromethyl)benzenesulfonamide]
- EC50 (SFRP-1 [1]): 0.473 µM
- IC50 (SFRP-1 [2]): 0.06 µM

SMILES: COC(=O)c1ccc2c(c1)CC(NS(=O)(=O)c1cc(S(=O)(=O)c3ccccc3)ccc1C(F)(F)F)C2 (stereo not drawn) [Example 1037, methyl 2-({[5-(phenylsulfonyl)-2-(trifluoromethyl)phenyl]sulfonyl}amino)indane-5-carboxylate]
- EC50 (SFRP-1 [1]): 3.81 µM
- IC50 (SFRP-1 [2]): 0.08 µM

SMILES: CCCc1ccc(S(=O)(=O)c2ccc(F)cc2)cc1S(=O)(=O)NCCC1CCOCC1 [Example 562, 5-[(4-Fluorophenyl)sulfonyl]-2-propyl-N-[2-(tetrahydro-2H-pyran-4-yl)ethyl]benzenesulfonamide]
- fold induction at 15 µM (SFRP-1 [1]; [3]): 3.3
- fold induction at 15 µM (SFRP-1 [1]; [4]): 1.2
- IC50 (SFRP-1 [2]): 1.6 µM

SMILES: O=S(=O)(NCCn1ccnc1)c1cc(S(=O)(=O)c2ccc(F)cc2)ccc1C(F)(F)F [Example 816, 5-[(4-fluorophenyl)sulfonyl]-N-[2-(1H-imidazol-1-yl)ethyl]-2-(trifluoromethyl)benzenesulfonamide]
- EC50 (SFRP-1 [1]): 1.51 µM
- fold induction at 10 µM (SFRP-1 [1]): 3.8
- IC50 (SFRP-1 [2]): 0.27 µM

SMILES: O=C(O)c1ccc(CCNS(=O)(=O)c2cc(S(=O)(=O)c3ccccc3)ccc2C(F)(F)F)cc1 [Example 877, 4-[2-({[5-(phenylsulfonyl)-2-(trifluoromethyl)phenyl]sulfonyl}amino)ethyl]benzoic acid]
- EC50 (SFRP-1 [1]): 0.257 µM
- fold induction at 10 µM (SFRP-1 [1]): 3.9
- IC50 (SFRP-1 [2]): 0.03 µM

SMILES: CC(C)c1ccc(S(=O)(=O)c2ccccc2)cc1S(=O)(=O)NCCc1ccccc1 [Example 295, 2-isopropyl-N-(2-phenylethyl)-5-(phenylsulfonyl)benzenesulfonamide]
- fold induction at 15 µM (SFRP-1 [1]; [5]): 2.7
- fold induction at 15 µM (SFRP-1 [1]; [6]): 1.5
- IC50 (SFRP-1 [2]): 0.3 µM

SMILES: O=C(N1CCOCC1)N1CCC(NS(=O)(=O)c2cc(S(=O)(=O)c3ccccc3)ccc2Cl)CC1 [Example 650, 2-chloro-N-[1-(morpholin-4-ylcarbonyl)piperidin-4-yl]-5-(phenylsulfonyl)benzenesulfonamide]
- fold induction at 15 µM (SFRP-1 [1]; [3]): 3.4
- fold induction at 15 µM (SFRP-1 [1]; [4]): 1.1
- IC50 (SFRP-1 [2]): 10 µM

SMILES: CC(C)c1ccc(S(=O)(=O)c2ccc(F)cc2)cc1S(=O)(=O)NC1CCN(C(=S)Nc2ccccc2F)CC1 [Example 691, N-(2-fluorophenyl)-4-[({5-[(4-fluorophenyl)sulfonyl]-2-isopropylphenyl}sulfonyl)amino]piperidine-1-carbothioamide]
- EC50 (SFRP-1 [1]): 8.6 µM
- fold induction at 10 µM (SFRP-1 [1]): 2.8
- IC50 (SFRP-1 [2]): 1 µM

SMILES: CC(C)c1ccc(S(=O)(=O)c2ccc(F)cc2)cc1S(=O)(=O)NC1CCS(=O)(=O)CC1 [Example 858, N-(1,1-dioxidotetrahydro-2H-thiopyran-4-yl)-5-[(4-fluorophenyl)sulfonyl]-2-isopropylbenzenesulfonamide]
- fold induction at 10 µM (SFRP-1 [1]): 3.8
- IC50 (SFRP-1 [2]): 1.4 µM

SMILES: CC(C)c1ccc(S(=O)(=O)c2ccccc2)cc1S(=O)(=O)NCC(O)c1ccccc1 (stereo not drawn) [Example 736, N-(2-hydroxy-2-phenylethyl)-2-isopropyl-5-(phenylsulfonyl)benzenesulfonamide]
- EC50 (SFRP-1 [1]): 1.76 µM
- fold induction at 10 µM (SFRP-1 [1]): 5
- IC50 (SFRP-1 [2]): 0.4 µM

SMILES: Cc1ccc(S(=O)(=O)c2ccccc2)cc1S(=O)(=O)NC1CCN(C(=O)c2ccc(C#N)cc2)CC1 [Example 476, N-[1-(4-cyanobenzoyl)piperidin-4-yl]-2-methyl-5-(phenylsulfonyl)benzenesulfonamide]
- fold induction at 15 µM (SFRP-1 [1]; [5]): 2
- fold induction at 15 µM (SFRP-1 [1]; [6]): 1
- IC50 (SFRP-1 [2]): 1.4 µM

SMILES: CN(CCNS(=O)(=O)c1cc(S(=O)(=O)c2ccccc2)ccc1C(F)(F)F)C(=O)N[C@H]1CCNC1 [Example 937, N-[2-(methyl{[(3S)-pyrrolidin-3-ylamino]carbonyl}amino)ethyl]-5-(phenylsulfonyl)-2-(trifluoromethyl)benzenesulfonamide]
- EC50 (SFRP-1 [1]): 2.3 µM
- fold induction at 10 µM (SFRP-1 [1]): 2.8
- IC50 (SFRP-1 [2]): 1.7 µM

SMILES: O=C(c1ccc(C(F)(F)F)cc1F)N1CCC(NS(=O)(=O)c2cc(S(=O)(=O)c3ccccc3)ccc2C(F)(F)F)CC1 [Example 710, N-{1-[2-fluoro-4-(trifluoromethyl)benzoyl]piperidin-4-yl}-5-(phenylsulfonyl)-2-(trifluoromethyl)benzenesulfonamide]
- fold induction at 10 µM (SFRP-1 [1]): 3.5
- IC50 (SFRP-1 [2]): 0.7 µM

SMILES: CC(C)c1ccc(S(=O)(=O)c2ccc(N3C[C@@H](C)NC[C@@H]3C)cc2)cc1S(=O)(=O)NC1CCOCC1 (relative stereo) [Example 627, 5-({4-trans-2,5-dimethylpiperazin-1-ylphenyl}sulfonyl)-2-isopropyl-N-(tetrahydro-2H-pyran-4-yl)benzenesulfonamide]
- Fold Induction with SFRP-1 (SFRP-1 [1]; Conc 15 μM, single dose, luciferase reporter, fold induction over SFRP-1 control, cells with SFRP-1): 3.4 fold
- Fold Induction without SFRP-1 (SFRP-1 [1]; Conc 15 μM, single dose, luciferase reporter, cells without SFRP-1 (specificity control)): 1.1 fold
- IC50 (SFRP-1 [2]): 5 µM

SMILES: C[C@H](CO)NS(=O)(=O)c1cc(S(=O)(=O)c2ccccc2)ccc1C(F)(F)F [Example 726, N-[(1R)-2-hydroxy-1-methylethyl]-5-(phenylsulfonyl)-2-(trifluoromethyl)benzenesulfonamide]
- fold induction at 10 µM (SFRP-1 [1]): 3
- IC50 (SFRP-1 [2]): 0.8 µM

SMILES: CCCc1ccc(S(=O)(=O)c2ccccc2)cc1S(=O)(=O)NCCc1ccccc1 [Example 550, N-(2-phenylethyl)-5-(phenylsulfonyl)-2-propylbenzenesulfonamide]
- fold induction at 15 µM (SFRP-1 [1]; [3]): 2.9
- fold induction at 15 µM (SFRP-1 [1]; [4]): 1.1
- IC50 (SFRP-1 [2]): 1.3 µM

SMILES: CC(CO)NS(=O)(=O)c1cc(S(=O)(=O)c2ccccc2)ccc1C(F)(F)F (stereo not drawn) [Example 683, N-(2-hydroxy-1-methylethyl)-5-(phenylsulfonyl)-2-(trifluoromethyl)benzenesulfonamide]
- EC50 (SFRP-1 [1]): 3.1 µM
- fold induction at 10 µM (SFRP-1 [1]): 3.7
- IC50 (SFRP-1 [2]): 1.2 µM

SMILES: CC(C)(C)c1ccc(NC(=O)N2CCC(NS(=O)(=O)c3cc(S(=O)(=O)c4ccccc4)ccc3C(F)(F)F)CC2)cc1 [Example 759, N-(4-tert-butylphenyl)-4-({[5-(phenylsulfonyl)-2-(trifluoromethyl)phenyl]sulfonyl}amino)piperidine-1-carboxamide]
- fold induction at 10 µM (SFRP-1 [1]): 3.5
- IC50 (SFRP-1 [2]): 1.6 µM
